The record followed here is paper PMC5674802 (Molecular cell, 2017).

The test addresses RagA-RagC heterodimer, RagC nucleotide site (Homo sapiens, UniProt Q9HB90). The test can be described thus: UV crosslinking of radiolabelled nucleotide, SDS-PAGE autoradiography. The test is classed as binding.

Chain of RagA-RagC heterodimer, RagC nucleotide site (Q9HB90 2-399): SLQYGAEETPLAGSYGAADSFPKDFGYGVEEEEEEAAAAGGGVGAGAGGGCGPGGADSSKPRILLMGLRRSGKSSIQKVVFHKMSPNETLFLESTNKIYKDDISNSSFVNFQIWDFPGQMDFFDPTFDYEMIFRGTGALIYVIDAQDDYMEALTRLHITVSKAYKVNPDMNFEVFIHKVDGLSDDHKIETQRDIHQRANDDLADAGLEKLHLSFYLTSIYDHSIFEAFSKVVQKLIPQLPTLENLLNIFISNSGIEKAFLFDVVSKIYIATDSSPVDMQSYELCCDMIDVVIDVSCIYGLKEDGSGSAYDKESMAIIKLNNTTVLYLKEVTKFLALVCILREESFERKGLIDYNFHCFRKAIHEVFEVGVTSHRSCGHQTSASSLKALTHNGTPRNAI
Chain of RagA-RagC heterodimer, RagC nucleotide site (Q7L523 whole entry partner): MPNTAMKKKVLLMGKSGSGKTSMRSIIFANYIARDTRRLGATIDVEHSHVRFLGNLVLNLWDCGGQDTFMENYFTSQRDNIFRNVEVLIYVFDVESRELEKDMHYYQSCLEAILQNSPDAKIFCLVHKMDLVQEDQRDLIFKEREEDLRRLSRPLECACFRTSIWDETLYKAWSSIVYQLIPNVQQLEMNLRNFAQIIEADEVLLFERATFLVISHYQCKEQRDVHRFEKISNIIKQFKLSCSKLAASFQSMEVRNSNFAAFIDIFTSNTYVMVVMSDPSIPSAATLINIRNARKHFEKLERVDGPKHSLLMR

On to `Nc1nc2c(ncn2[C@@H]2O[C@H](COP(=O)(O)OP(=O)(O)OP(=O)(O)O)[C@@H](O)[C@H]2O)c(=O)[nH]1` [GTP], for which the Kd is 11 nM.
